For this assay, the system named is sweet taste. Description: Sensory testing by a group of about 5 panelists (sweetness, licorice taste, lingering aftertaste). Format: in vivo. To be noted: for Lingering: panelists' rating of lingering aftertaste on a scale from 1 to 10; for Licorice / Sweet: panelists' rating on a scale from 1 to 10. On the procedure:
Sensory testing was conducted by a group of about 5 panelists. […] The panelists rated the sweetness, licorice taste, and lingering aftertaste of Isomogroside IVE in comparison to Mogroside V on a scale from 1 to 10.

With `C[C@H](CC[C@@H](O[C@@H]1O[C@H](CO)[C@@H](O)[C@H](O)[C@H]1O[C@@H]1O[C@H](CO)[C@@H](O)[C@H](O)[C@H]1O)C(C)(C)O)[C@H]1CC[C@@]2(C)[C@@H]3CC=C4[C@@H](CC[C@H](O[C@@H]5O[C@H](CO)[C@@H](O[C@@H]6O[C@H](CO)[C@@H](O)[C@H](O)[C@H]6O)[C@H](O)[C@H]5O)C4(C)C)[C@]3(C)[C@H](O)C[C@]12C` [Isomogroside IVE, (1S,4R,9beta,11alpha,24R)-1-{[4-O-(beta-D-glucopyranosyl)-beta-D-glucopyranosyl]oxy}-11,25-dihydroxy-9,10,14-trimethyl-4,9-cyclo-9,10-secocholest-5-en-24-yl 2-O-beta-D-glucopyranosyl-beta-D-glucopyranoside], for the setting “250 ppm, panelists' perception”, the “licorice taste and lingering aftertaste in comparison to Mogroside V” value is on record as “no statistically significant difference”; the “sweetness in comparison to Mogroside V” value is “somewhat sweeter than Mogroside V”. Further, under “250 ppm”, the Lingering was 5.4, the Licorice was 4.5 and the Sweet was found to be 7.0. Further, the “times sweeter than sucrose” value (tasted at 250 ppm in a water base) is listed as 200-300 times.

With `C[C@H](CC[C@@H](O[C@@H]1O[C@H](CO[C@@H]2O[C@H](CO)[C@@H](O)[C@H](O)[C@H]2O)[C@@H](O)[C@H](O)[C@H]1O[C@@H]1O[C@H](CO)[C@@H](O)[C@H](O)[C@H]1O)C(C)(C)O)[C@H]1CC[C@@]2(C)[C@@H]3CC=C4[C@@H](CC[C@H](O[C@@H]5O[C@H](CO[C@@H]6O[C@H](CO)[C@@H](O)[C@H](O)[C@H]6O)[C@@H](O)[C@H](O)[C@H]5O)C4(C)C)[C@]3(C)[C@H](O)C[C@]12C` [Mogroside V, reference compound], under “250 ppm”, the Lingering is on record as 4.6, the Licorice came to 3.7 and the Sweet was 5.1.

Source of the values: patent publication US20220017564A1, “MOGROSIDE COMPOUNDS AND USES THEREOF” (Firmenich SA, priority 2019, published 2022).
